Measurements published in PMC8070745, “FEN1 Blockade for Platinum Chemo-Sensitization and Synthetic Lethality in Epithelial Ovarian Cancers” (Cancers, 2021).

Experiments:
PEO4 cells = assay: Clonogenic assay, PEO4; type: cell-based, human
Procedure: (§1) Clonogenic assay: In the clonogenic assay (colony formation assays), 32 cells/cm2 were seeded in 6-well plates and left at 37°C in a 5% CO2 atmosphere. Cisplatin (5µM) and/or FEN1i (10µM) and/or Importazole (5 µM, Selleckem, S8446 ) were added at the indicated concentrations and the plates were left at 37 °C in a 5% CO 2 atmosphere for 14 days. Later, the plates were washed with PBS, fixed and stained with a crystal violet, acetic acid and methanol solution and colonies were counted. […]

PEO1R cells = assay: Clonogenic assay, PEO1R; type: cell-based, human; details: vs parental PEO1 cells
Procedure: as §1

[1] = target: T1, Recombinant human FEN1 protein (Homo sapiens, UniProt P39748); assay: radio-labeled FEN1 cleavage assay; type: biochemical; details: 3 nM FEN1, 37 °C, 10 min
T1 construct: made in house

A2780cis cells [2] = assay: Clonogenic assay, A2780cis; type: cell-based, human
Procedure: as §1

A2780cis cells [3] = assay: Annexin V apoptosis detection, A2780cis; type: cell-based, human; details: FEN1i plus cisplatin
Procedure: (§2) Apoptosis detection: Annexin V detection kit (556547, BD Biosciences) was used to quantify apoptotic cells. Briefly, cells were trypsinized, washed with PBS and the cellular pellet was re-suspended in Anexin Binding Buffer (1×). Following, FITC Anexin V and Propidium Iodide were added to the cells. After incubation, Anexin binding Buffer (1×) was added to each tube. All the samples were analysed on a Beckman-Coulter FC500 flow cytometer. The percentage of apoptotic cells was determined (late apoptotic = FITC-Annexin V positive, PI positive early apoptotic = FITC-Annexin V positive, PI negative; live cells = FITC-Annexin V negative, PI negative) and compared for untreated and treated samples. Graphical representation and statistical analysis was performed in GraphPad Prism 7 (GraphPad, La Jolla, USA).
(§3) 3D Spheroid assays: A2780_control and A2780 FEN1_ KO as well as A2780cis_control and A2780cis FEN1_ KO cells were seeded at 4500 cells/cm2 density in ultra-low attachment 6-well plates (174932, Thermo Fisher Scientific) and cultured in 3D Tumorsphere Medium (C28070, PromoCell, UK) at 37°C in a 5% CO2 atmosphere. Cells were keep in culture for 7-10 days, toping up with fresh medium every two days until spheroids structures were formed.

PEO1R spheroids = assay: 3D spheroid assay, PEO1R; type: cell-based, human; details: vs PEO1 spheroids
Procedure: (§4) with ice cold PBS and fixed in 70% ethanol for 1h at -20°C. After removal of the fixative solution by centrifugation, cells were stained with 2 µg/ml of phospho-Histone (γH2AX) Ser139 (16202A, Millipore, UK) to detect DSBs.
(§5) Cell cycle progression: Cells were treated with 20 µg/ml RNase A (12091021, Invitrogen) and then 10 µg/ml Propidium Iodide (P4170, Sigma Aldrich) was added to determine the cell cycle distribution. The samples were analysed on a Beckman-Coulter FC500 flow cytometer using a 488nm laser for excitation and emission data for PI collected using a 620nm bandpass filter (FL3) and a 525nm bandpass filter (FL1) for FITC-anti-phospho-Histone H2A.X.
as §2, with “Following, FITC Anexin V and Propidium Iodide were added to the cells. After incubation, Anexin binding Buffer (1×) was added to each tube.” left out, “Graphical representation and statistical analysis was performed in GraphPad Prism 7 (GraphPad, La Jolla, USA).” left out
To quantify cell viability, LIVE/DEAD Viability/Cytotoxicity Kit (L3224, Thermo Fisher Scientific) was used. […] At least 10 spheroids were measured. […]

A2780cis cells [4] = assay: γH2AX analysis, A2780cis; type: cell-based, human; details: FEN1i plus cisplatin
Procedure: Graphical representation and statistical analysis of mean tail moment was performed in GraphPad Prism 6 (GraphPad, La Jolla, USA). All experiments were done in duplicate three times.
γH2AX FACS: For monitoring DNA double strand break accumulation by γH2AX FACS, 1.05×104 Cells/cm2 were seeded in 6-well plates and left overnight at 37°C in a 5% CO 2 atmosphere. Cisplatin (5µM) or FEN1i (10µM) was later added to cells and incubated for 24h and 48h at 37°C in a 5% CO2 atmosphere. Cells were collected by trypsinization, washed […]
as §4
as §5, with “H2A.X. […]” for “H2A.X.”
Graphical representation and statistical analysis was performed in GraphPad Prism 7 (GraphPad, La Jolla, USA). […]

PEO1 cells [5] = assay: Clonogenic assay, PEO1; type: cell-based, human
Procedure: as §1

A2780cis cells [6] = assay: Cell cycle progression, A2780cis; type: cell-based, human; details: FEN1i plus cisplatin
Procedure: as §4
as §5, with “H2A.X. […]” for “H2A.X.”
(§6) Graphical representation and statistical analysis was performed in GraphPad Prism 7 (GraphPad, La Jolla, USA).
as §3

POLβ KO A2780cis cells = assay: Cell cycle progression, POLβ KO A2780cis; type: cell-based, human; details: FEN1i-treated
Procedure: as §4
as §5, with “H2A.X. […]” for “H2A.X.”
as §6, §3

PEO1 cells [7] = assay: Annexin V apoptosis detection, PEO1; type: cell-based, human; details: FEN1i monotherapy
Procedure: as §2, §3

T1 sequence (P39748 whole entry): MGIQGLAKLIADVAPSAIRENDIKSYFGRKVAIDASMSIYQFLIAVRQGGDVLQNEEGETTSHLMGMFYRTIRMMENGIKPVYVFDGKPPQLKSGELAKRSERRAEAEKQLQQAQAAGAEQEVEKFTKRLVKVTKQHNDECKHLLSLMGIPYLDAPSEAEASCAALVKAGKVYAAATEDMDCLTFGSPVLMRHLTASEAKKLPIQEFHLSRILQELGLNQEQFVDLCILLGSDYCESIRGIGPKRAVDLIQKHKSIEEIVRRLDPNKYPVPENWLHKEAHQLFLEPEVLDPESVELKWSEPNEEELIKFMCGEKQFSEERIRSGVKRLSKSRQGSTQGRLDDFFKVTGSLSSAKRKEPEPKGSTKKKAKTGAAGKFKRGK

FEN1 inhibition in cleavage assay [1] | Compound | effect on cisplatin cytotoxicity (PEO4 cells; FEN1i plus cisplatin) | sensitivity to FEN1 inhibitor (PEO1R cells) | cytotoxicity of FEN1i monotherapy (A2780cis cells [2]; 10 µM) | effect on cisplatin cytotoxicity (A2780cis cells [2]; FEN1i 10 µM plus cisplatin) | apoptosis (A2780cis cells [3]) | spheroid sensitivity to FEN1 inhibitor (PEO1R spheroids) | γH2AX nuclear foci (A2780cis cells [4]) | sensitivity to FEN1 inhibitor (PEO1 cells [5]; BRCA2 deficient PEO1 vs BRCA2 proficient PEO4) | cell cycle effect (A2780cis cells [6]) | cell cycle effect (POLβ KO A2780cis cells) | apoptosis (PEO1 cells [7]) | cisplatin sensitivity (PEO4 cells) | sensitivity to cisplatin (PEO1R cells) | cisplatin sensitivity (A2780cis cells [2]) | spheroid sensitivity to cisplatin (PEO1R spheroids) | cisplatin sensitivity (PEO1 cells [5])
confirmed FEN1 inhibition | Cc1csc2c1c(=O)n(O)c(=O)n2-c1ccccc1 [PTPD, 3-hydroxy-5-methyl-1-phenylthieno [2,3 d]pyrimidine-2,4(1H,3H)-dione] | potentiated cisplatin cytotoxicity | resistant | non-toxic | significantly enhanced the cytotoxicity of cisplatin | accumulation of apoptotic cells | resistant | induced nuclear γH2AX nuclear foci accumulation | more sensitive to FEN1 inhibition in comparison to PEO4 cells | G2/M cell cycle arrest | G2/M cell cycle arrest | induction of apoptosis | – | – | – | – | –
– | N.N.[Cl][Pt][Cl] [cisplatin] | – | – | – | – | – | – | – | – | – | – | – | cisplatin resistant | resistant | cisplatin-resistant | resistant | cisplatin sensitive
